Data on nine molecules can be found in PMC6930500, “Structure–Activity Relationships of 7-Substituted Dimethyltyrosine-Tetrahydroisoquinoline Opioid Peptidomimetics” (Molecules, 2019).

Assay [1] has as its target T1, human DOR (Homo sapiens, UniProt P41143).
T1 construct: expressed in transfected cells; cell lines provided by Professor Lawrence Toll
The assay can be described thus: [3H]-diprenorphine competitive displacement binding, DOR. To be noted: membranes from CHO cells expressing human DOR; mean (SEM), n>=3 in duplicate. The procedure: (§1) Each novel compound was evaluated for binding to and stimulation of KOR, MOR, and DOR. Binding affinity (Ki) was determined by competitive displacement of [^3H]-diprenorphine, a non-selective opioid receptor antagonist with similar affinity for each of the three receptors. Potency (EC50) and efficacy, expressed as percent stimulation compared to a standard agonist at each receptor, were determined by a [^35S]-GTPγS binding assay.
(§2) Membranes prepared from transfected Chinese Hamster Ovary cells stably expressing human KOR, human MOR, or human DOR were used for all assays. Cells were grown to confluence at 37 °C in 5% CO2 in 1:1 DMEM:F12 media with 10% v/v fetal bovine serum and 5% v/v penicillin/streptomycin. Membranes were prepared by washing confluent cells three times with ice cold phosphate-buffered saline (0.9% NaCl, 0.61 mM Na2HPO4, 0.38 mM KH2PO4, pH 7.4). Cells were detached from the plates by incubation in warm harvesting buffer (20 mM HEPES, 150 mM NaCl, 0.68 mM EDTA, pH 7.4) and pelleted by centrifugation at 200× g for 3 min. The cell pellet was suspended in ice-cold 50 mM Tris-HCl buffer, pH 7.4 and homogenized with a Tissue Tearor (Biospec Products, Inc, distributed by Cole-Parmer, Vernon Hills, IL, USA) for 20 s at setting 4. The homogenate was centrifuged at 20,000× g for 20 min at 4 °C, and the pellet was rehomogenized in 50 mM Tris-HCl pH 7.4 with a Tissue Tearor for 10 s at setting 2, followed by recentrifugation. The final pellet was resuspended in 50 mM Tris-HCl pH 7.4 and frozen in aliquots at −80 °C. Protein concentration was determined via Pierce BCA protein assay kit using bovine serum albumin as the standard.
(§3) Binding affinities for all test compounds at KOR, MOR, and DOR were determined by competitive displacement of [^3H]-diprenorphine as previously reported. In a 96-well plate format, cell membranes (5–10 µg of protein) and [^3H]-diprenorphine (0.2 nM) were incubated in Tris-HCl buffer (50 mM, pH 7.4) with various concentrations of test compound at 25 °C for 1 h, allowing the mixture to reach equilibrium. Nonspecific binding was determined using the opioid antagonist naloxone (10 µM), and total binding was determined using vehicle in the absence of competitive ligand. After incubation, membranes were filtered through Whatman GF/C 1.2 micron glass fiber filters and washed with 50 mM Tris-HCl buffer. The radioactivity remaining on the filters was then quantified by liquid scintillation counting after saturation with EcoLume liquid scintillation cocktail in a Microbeta 2450 (Perkin-Elmer, Waltham, MA, USA). Binding affinity (Ki) values were calculated using the Cheng–Prusoff equation via nonlinear regression analysis using GraphPad Prism software from at least three separate binding assays performed in duplicate.

Assay [2] concerns the target T2, human KOR (Homo sapiens, UniProt P41145).
T2 construct: expressed in transfected cells; cell lines provided by Professor Lawrence Toll
The assay can be described thus: [3H]-diprenorphine competitive displacement binding, KOR. To be noted: for Ki: membranes from CHO cells expressing human KOR, mean (SEM), n>=3 in duplicate. How it is done: as §1, §2, §3

The target of assay [3] is T2, human KOR. The assay can be described thus: [35S]-GTPγS binding stimulation, KOR. In kind it is biochemical. To be noted: mean (SEM); for EC50: CHO-human KOR membranes, * n = 2, dns = does not stimulate, average maximal stimulation <10% at up to 10 µM; for Emax: versus 10 µM standard agonist U69,593, dns = average maximal stimulation <10% at up to 10 µM. How it is done: as §1, §2
(§4) Agonist stimulation of KOR, MOR, and DOR by all test compounds was determined by [^35S]-guanosine 5′-O-[γ-thio]triphosphate ([^35S]-GTPγS) binding assays as previously reported. In a 96-well plate format, membranes from cells expressing opioid receptors as described above (10 µg of protein), [^35S]-GTPγS (0.1 nM), and guanosine diphosphate (30 µM) were incubated in GTPγS buffer (50 mM Tris-HCl, 100 mM NaCl, 5 mM MgCl2, 1 mM EDTA, pH 7.4) with various concentrations of test compound at 25 °C for 1 h. Basal stimulation was determined by incubation in the absence of any ligand. After incubation, membranes were filtered through Whatman GF/C 1.2 micron glass fiber filters and washed with GTPγS buffer with no EDTA. The radioactivity remaining on the filters was then quantified by liquid scintillation counting after saturation with EcoLume liquid scintillation cocktail in a Perkin-Elmer Microbeta 2450. Data are reported as percent stimulation compared to the effects of 10 µM standard agonists—U69,593 (KOR), DAMGO (MOR), or DPDPE (DOR). Percent stimulation and EC50 values were determined via nonlinear regression analysis using GraphPad Prism software from at least three separate assays performed in duplicate. Efficacy is expressed as percent stimulation relative to standard agonists.

Assay [4] addresses T3, human MOR (Homo sapiens, UniProt P35372).
T3 construct: expressed in transfected cells; cell lines provided by Professor Lawrence Toll
The assay can be described thus: [35S]-GTPγS binding stimulation, MOR. To be noted: mean (SEM), * n = 2; for EC50: CHO-human MOR membranes, dns = does not stimulate, average maximal stimulation <10% at up to 10 µM; for Emax: versus 10 µM standard agonist DAMGO, dns = average maximal stimulation <10% at up to 10 µM. The assay is classed as biochemical. How it is done:
as §1, §2, §4

The target of assay [5] is T3, human MOR. The assay can be described thus: [3H]-diprenorphine competitive displacement binding, MOR. The settings on record: for Ki: membranes from CHO cells expressing human MOR, mean (SEM), n>=3 in duplicate. How it is done:
as §1, §2, §3

Assay [6] deals with T1, human DOR. The assay can be described thus: [35S]-GTPγS binding stimulation, DOR. The assay is classed as biochemical. To be noted: mean (SEM), * n = 2; for % Stimulation DOR: versus 10 µM standard agonist DPDPE, dns = average maximal stimulation <10% at up to 10 µM. The procedure:
as §1, §2, §4
On the technique in general: GTPγS resists hydrolysis and so accumulates on activated G proteins.

Setting [7] is: CHO-human DOR membranes, dns = does not stimulate, average maximal stimulation <10% at up to 10 µM.

The structures appear in SMILES notation.

As usually defined, the Ki is a dissociation constant, usually derived from enzyme kinetics or from competition with a known ligand. Lower therefore signals higher affinity. For orientation: EC50 means the midpoint of the concentration-response curve. The low end stands for greater potency, the high end for weaker potency. The term Emax denotes the size of the effect at its maximum, as opposed to the concentration needed. On to `COc1ccccc1Cc1ccc2c(c1)CN(C(=O)[C@@H](N)Cc1c(C)cc(O)cc1C)CC2` [Compound 8a, (S)-2-amino-3-(4-hydroxy-2,6-dimethylphenyl)-1-(7-(2-methoxybenzyl)-3,4-dihydroisoquinolin-2(1H)-yl)propan-1-one], for which the Ki on human DOR [1] is 2.7 nM; on human KOR [2] it was 3.1 nM; on human MOR [5], 3.7 nM. Moreover, the EC50 at human KOR [3] was found to be 130 nM; at human MOR [4], 92 nM. For the same molecule, the results for the maximal effect (Emax) on human KOR [3] and on human MOR [4] were 72% and 37%, respectively. The “EC50 DOR” value on human DOR [6] (setting [7]) is “dns *”. Besides, the “% Stimulation DOR” value at human DOR [6] is “dns *”.

Consider `Cc1cc(O)cc(C)c1C[C@H](N)C(=O)N1CCc2ccc(Cc3ccccc3O)cc2C1` [Compound 8b, (S)-2-amino-3-(4-hydroxy-2,6-dimethylphenyl)-1-(7-(2-hydroxybenzyl)-3,4-dihydroisoquinolin-2(1H)-yl)propan-1-one], for which the Ki on human DOR [1] was 2.5 nM; on human KOR [2], 0.32 nM; on human MOR [5] it was 1.2 nM. The “higher affinity for KOR than for DOR” value on human KOR [2] (ratio of Ki values) was “eight-fold”. For the same molecule, the values for the EC50 at human KOR [3] and on human MOR [4] were 11 nM and 43 nM, respectively. For the same molecule, the results for the Emax on human KOR [3] and on human MOR [4] were 89% and 60%, respectively. The “higher affinity for MOR than for DOR” value at human MOR [5] (ratio of Ki values) is reported as “two-fold”. The “EC50 DOR” value on human DOR [6] (setting [7]) is “dns *”. On human DOR [6], the “% Stimulation DOR” value was “dns *”.

In the case of `Cc1cc(O)cc(C)c1C[C@H](N)C(=O)N1CCc2ccc(Cc3ccccc3C(F)(F)F)cc2C1` [Compound 8c, (S)-2-amino-3-(4-hydroxy-2,6-dimethylphenyl)-1-(7-(2-(trifluoromethyl)benzyl)-3,4-dihydroisoquinolin-2(1H)-yl)propan-1-one], the figures for the Ki on human DOR [1], on human KOR [2] and on human MOR [5] were 4.9 nM, 2.6 nM and 4.3 nM, respectively. Moreover, the EC50 is 173 nM on human KOR [3], 53 nM on human MOR [4] and 342 nM at human DOR [6] (setting [7]). The Emax at human KOR [3] is 81%; at human MOR [4], 76%. The “% Stimulation DOR” value at human DOR [6] is on record as 24 (3) %.

As for `Cc1cc(O)cc(C)c1C[C@H](N)C(=O)N1CCc2ccc(Cc3ccccc3C#N)cc2C1` [Compound 8d, (S)-2-((2-(2-amino-3-(4-hydroxy-2,6-dimethylphenyl)propanoyl)-1,2,3,4-tetrahydroisoquinolin-7-yl)methyl)benzonitrile], the Ki is 3.6 nM at human DOR [1], 0.5 nM at human KOR [2] and 6.8 nM at human MOR [5]. For the same molecule, the EC50 at human KOR [3] is 3.7 nM; on human MOR [4] it was 664 nM. Besides, the Emax was found to be 80% at human KOR [3] and 31% at human MOR [4]. Also, the “EC50 DOR” value at human DOR [6] (setting [7]) was “dns”. For the same molecule, the “% Stimulation DOR” value on human DOR [6] is “dns”.

On to `COc1cccc(Cc2ccc3c(c2)CN(C(=O)[C@@H](N)Cc2c(C)cc(O)cc2C)CC3)c1` [Compound 8e, (S)-2-amino-3-(4-hydroxy-2,6-dimethylphenyl)-1-(7-(3-methoxybenzyl)-3,4-dihydroisoquinolin-2(1H)-yl)propan-1-one], for which the Ki came out at 1.7 nM on human DOR [1], 3 nM at human KOR [2] and 2.7 nM at human MOR [5]. Further, the EC50 at human KOR [3] stood at 148 nM; on human MOR [4] it was 24 nM. Also, the Emax was 74% at human KOR [3] and 48% on human MOR [4]. For the same molecule, the “EC50 DOR” value at human DOR [6] (setting [7]) is listed as “dns”. Further, the “% Stimulation DOR” value at human DOR [6] is “dns”.

As to `Cc1cc(O)cc(C)c1C[C@H](N)C(=O)N1CCc2ccc(Cc3cccc(O)c3)cc2C1` [Compound 8f, (S)-2-amino-3-(4-hydroxy-2,6-dimethylphenyl)-1-(7-(3-hydroxybenzyl)-3,4-dihydroisoquinolin-2(1H)-yl)propan-1-one], the Ki at human DOR [1] was determined as 1.4 nM; at human KOR [2] it was 0.8 nM; at human MOR [5] it was 0.6 nM. For the same molecule, the EC50 came out at 148 nM at human KOR [3] and 18 nM at human MOR [4]. For the same molecule, the maximal response (Emax) on human KOR [3] amounted to 83%; at human MOR [4] it was 81%. Besides, the “EC50 DOR” value at human DOR [6] (setting [7]) is recorded as “dns *”. On human DOR [6], the “% Stimulation DOR” value was “dns *”.

Take `Cc1cc(O)cc(C)c1C[C@H](N)C(=O)N1CCc2ccc(Cc3cccc(C(F)(F)F)c3)cc2C1` [Compound 8g, (S)-2-amino-3-(4-hydroxy-2,6-dimethylphenyl)-1-(7-(3-(trifluoromethyl)benzyl)-3,4-dihydroisoquinolin-2(1H)-yl)propan-1-one]: the Ki stood at 1.6 nM at human DOR [1], 5.4 nM on human KOR [2] and 4.1 nM at human MOR [5]. Also, the EC50 on human KOR [3] was found to be 319 nM; at human MOR [4] it was 205 nM. Also, the Emax at human KOR [3] was found to be 68%; at human MOR [4] it was 45%. Besides, the “EC50 DOR” value at human DOR [6] (setting [7]) is “dns”. Moreover, the “% Stimulation DOR” value at human DOR [6] is “dns”.

On to `Cc1cccc(Cc2ccc3c(c2)CN(C(=O)[C@@H](N)Cc2c(C)cc(O)cc2C)CC3)c1C` [Compound 8i, (S)-2-amino-1-(7-(2,3-dimethylbenzyl)-3,4-dihydroisoquinolin-2(1H)-yl)-3-(4-hydroxy-2,6-dimethylphenyl)propan-1-one], for which the inhibition constant Ki was 3.6 nM on human DOR [1], 5.8 nM at human KOR [2] and 5.2 nM on human MOR [5]. The EC50 on human KOR [3] is 1030 nM; at human MOR [4], 380 nM. Further, the Emax on human KOR [3] was 54%; at human MOR [4] it was 34%. In addition, the “EC50 DOR” value on human DOR [6] (setting [7]) is reported as “dns *”. In addition, at human DOR [6], the “% Stimulation DOR” value is recorded as “dns *”.

`Cc1cc(O)cc(C)c1C[C@H](N)C(=O)N1CCc2ccc(Cc3cccnc3)cc2C1` [Compound 8j, (S)-2-amino-3-(4-hydroxy-2,6-dimethylphenyl)-1-(7-(pyridin-3-ylmethyl)-3,4-dihydroisoquinolin-2(1H)-yl)propan-1-one]: the inhibition constant (Ki) at human DOR [1] was 1.5 nM; at human KOR [2], 56 nM; at human MOR [5], 5.4 nM. Besides, the EC50 stood at 988 nM at human KOR [3] and 145 nM at human MOR [4]. In addition, the Emax on human KOR [3] is 40%; at human MOR [4], 23%. In addition, the “EC50 DOR” value at human DOR [6] (setting [7]) is listed as “dns”. In addition, the “% Stimulation DOR” value at human DOR [6] is “dns”.
